From ChEMBL document CHEMBL1201862, “PubChem BioAssay data set” (2004) come the findings set out here.

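All cell lines were grown in 96-well plates and treated with compound for 48 hours. Here, GI50 denotes the concentration required for 50% inhibition of growth.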 Calls of active or inactive are those of the source. Cut-off read from the data, not from the text of the source: active = GI50 up to about 1.1 µM and inactive = higher.

Among the test systems are A498; CCRF-CEM; COLO 205; HCC 2998; HCT-116; HL-60; HOP-92; HT-29; LOX IMVI; NCI-H226; SF-268; SK-MEL-28; SK-MEL-2; SW-620; UACC-257; UO-31; SK-MEL-5.
Common to all, as to assay: inhibition of tumour cell growth, NCI panel, 48 h

Consider `CC(C)(C)C1C=C(Sc2ccccc2)C(=O)O1` (stereo not drawn), for which the GI50 in the assay with A498 was 41.9 µM (inactive); in the assay with CCRF-CEM, 37.4 µM (inactive); in the assay with COLO 205, 26.9 µM (inactive); in the assay with HCC 2998 it was 58.9 µM (inactive); with HCT-116 it was 40.1 µM (inactive); in the assay on HL-60, 24.9 µM (inactive). Besides, the GI50 in the assay with HOP-92 is 29.2 µM (inactive); in the assay on HT-29, 49.8 µM (inactive); in the assay on LOX IMVI, 37.6 µM (inactive); with NCI-H226, 54.7 µM (inactive); in the assay with SF-268, 37.2 µM (inactive); in the assay on SK-MEL-28, 83.6 µM (inactive). Besides, the GI50 is > 100 µM (inactive) in the assay on SK-MEL-2, 80.5 µM (inactive) in the assay with SW-620, 31.8 µM (inactive) in the assay on UACC-257 and 33.7 µM (inactive) in the assay with UO-31.

Consider `COc1ccc(N2C(=O)/C(=C(\C)c3cc4ccccc4oc3=O)N=C2c2cc([N+](=O)[O-])ccc2Cl)cc1`, for which the GI50 in the assay on A498 was 24 µM (inactive); with CCRF-CEM it was 32.5 µM (inactive); with COLO 205, 43.9 µM (inactive); in the assay on HCC 2998, 43.5 µM (inactive); in the assay with HCT-116 it was 29.9 µM (inactive); with HL-60, 22.9 µM (inactive). Also, the GI50 in the assay with HT-29 is 35.7 µM (inactive); with LOX IMVI it was 34.5 µM (inactive); with NCI-H226, > 100 µM (inactive); with SF-268, 28.7 µM (inactive); with SK-MEL-28, 66.4 µM (inactive); with SK-MEL-2 it was 61 µM (inactive). For the same molecule, the GI50 in the assay on SK-MEL-5 was 30.6 µM (inactive); in the assay with SW-620, 33.9 µM (inactive); with UACC-257, 44 µM (inactive); in the assay on UO-31, 46.9 µM (inactive).

As to `Clc1cccc(N2CCN(CCCN3CCc4c([nH]c5ccccc45)C3c3cccnc3)CC2)c1` (stereo not drawn), the GI50 in the assay on A498 was 10.4 µM (inactive); with CCRF-CEM, 6.76 µM (inactive); in the assay with COLO 205 it was 2.88 µM (inactive); with HCT-116 it was 5.78 µM (inactive); in the assay on HL-60, 2.46 µM (inactive); in the assay with HOP-92, 8.69 µM (inactive). Besides, the GI50 in the assay with HT-29 is 3.89 µM (inactive); with LOX IMVI, 8.17 µM (inactive); with NCI-H226, 18.1 µM (inactive); in the assay on SK-MEL-28 it was 3.6 µM (inactive); in the assay on SK-MEL-2, 11 µM (inactive); in the assay on SK-MEL-5 it was 5.32 µM (inactive). For the same molecule, the GI50 in the assay on SW-620 was 13 µM (inactive); in the assay with UACC-257 it was 4.34 µM (inactive); in the assay on UO-31 it was 5.15 µM (inactive).

With `C/N=c1/ss/c(=N\C(SC)=[N+](C)C)n1C.[O-][Cl+3]([O-])([O-])[O-]`, the GI50 in the assay on CCRF-CEM was 3.97 µM (inactive); with HCC 2998, > 100 µM (inactive); in the assay with HCT-116, > 100 µM (inactive); in the assay on HL-60, 31.3 µM (inactive); in the assay on HOP-92, > 100 µM (inactive); in the assay on HT-29, 4.98 µM (inactive). In addition, the GI50 in the assay on LOX IMVI was > 100 µM (inactive); in the assay on NCI-H226 it was > 100 µM (inactive); in the assay with SF-268, > 100 µM (inactive); in the assay on SK-MEL-28 it was > 100 µM (inactive); in the assay on SK-MEL-2, > 100 µM (inactive); in the assay with SK-MEL-5, 0.419 µM (active). Besides, the GI50 in the assay with SW-620, with UACC-257 and with UO-31 was > 100 µM (inactive) in each case.

In the case of `C/C(=N/NS(=O)(=O)c1c(C)cc(C)cc1C)c1cccc[n+]1[O-]`, the GI50 in the assay with A498, with CCRF-CEM, with HCC 2998, with HCT-116, in the assay with HL-60 and in the assay with HOP-92 was > 100 µM (inactive) throughout. For the same molecule, the GI50 in the assay on HT-29, in the assay on SF-268, in the assay on SK-MEL-28, with SK-MEL-5, in the assay on SW-620 and in the assay on UACC-257 was > 100 µM (inactive) in each case. For the same molecule, the GI50 in the assay with UO-31 is > 100 µM (inactive).

`C/C=C/C(=O)[C@@H](O)C(C)C`: the GI50 in the assay on COLO 205, with HCC 2998, in the assay on HCT-116, with HOP-92, in the assay with HT-29 and with NCI-H226 was > 100 µM (inactive) each time. Moreover, the GI50 in the assay with SF-268, in the assay on SK-MEL-28, in the assay on SK-MEL-2, in the assay on SK-MEL-5, with SW-620 and with UACC-257 was > 100 µM (inactive) each time. For the same molecule, the GI50 with UO-31 was > 100 µM (inactive).

For `Clc1ccc(-c2c(C3=NCCCN3)nnn2-c2ccccc2)cc1`, the GI50 with A498 was > 100 µM (inactive); in the assay with CCRF-CEM, 35.9 µM (inactive); in the assay on COLO 205, 34.9 µM (inactive); with HCC 2998 it was > 100 µM (inactive); with HCT-116 it was 43.1 µM (inactive); in the assay on HL-60 it was 17.6 µM (inactive). The GI50 with HOP-92 was 34.9 µM (inactive); in the assay with HT-29 it was 40.1 µM (inactive); in the assay with LOX IMVI, 24.9 µM (inactive); in the assay with NCI-H226, > 100 µM (inactive); in the assay with SF-268, > 100 µM (inactive); in the assay on SK-MEL-28, > 100 µM (inactive). In addition, the GI50 was > 100 µM (inactive) in the assay on SK-MEL-2; > 100 µM (inactive) in the assay on SK-MEL-5; 20.2 µM (inactive) with SW-620; > 100 µM (inactive) in the assay on UACC-257; 71.9 µM (inactive) in the assay with UO-31.

Regarding `Cc1ccc(C(=O)N2c3ccccc3N(C)n3cccc3C2CC(=O)O)cc1` (stereo not drawn), the GI50 with A498, in the assay with CCRF-CEM, with COLO 205, in the assay on HCC 2998, in the assay with HL-60 and in the assay with HOP-92 was > 100 µM (inactive) each time. Further, the GI50 with HT-29, with LOX IMVI, with NCI-H226, in the assay on SF-268, in the assay on SK-MEL-28 and in the assay on SK-MEL-2 was > 100 µM (inactive) each time. Besides, the GI50 in the assay with SK-MEL-5, in the assay on SW-620, in the assay with UACC-257 and with UO-31 was > 100 µM (inactive) in each case.

As for `C[C@]12CCC(=O)C(O)=C1CCC2=O`, the GI50 in the assay on A498, with CCRF-CEM, in the assay with COLO 205, in the assay with HCC 2998, in the assay on HCT-116 and in the assay with HL-60 was > 100 µM (inactive) throughout. Moreover, the GI50 with HOP-92, in the assay on HT-29, in the assay with LOX IMVI, in the assay on NCI-H226, with SF-268 and in the assay on SK-MEL-28 was > 100 µM (inactive) throughout. Also, the GI50 with SK-MEL-5, with SW-620, in the assay on UACC-257 and in the assay with UO-31 was > 100 µM (inactive) in each case.

On to `O=C1C[S+]([O-])c2ccccc2N1` (stereo not drawn), for which the GI50 with A498 is > 100 µM (inactive); in the assay on CCRF-CEM it was > 100 µM (inactive); in the assay on COLO 205, 30.8 µM (inactive); in the assay with HCC 2998, > 100 µM (inactive); with HCT-116, 71.1 µM (inactive); with HL-60, > 100 µM (inactive). In addition, the GI50 in the assay with HOP-92 is > 100 µM (inactive); with HT-29 it was > 100 µM (inactive); in the assay with LOX IMVI, 52.6 µM (inactive); in the assay with NCI-H226, > 100 µM (inactive); in the assay on SF-268 it was 71.8 µM (inactive); in the assay on SK-MEL-28, 55.1 µM (inactive). Further, the GI50 in the assay on SK-MEL-2, in the assay on SK-MEL-5, with UACC-257 and in the assay with UO-31 was > 100 µM (inactive) throughout.

Turning to `CCOC(=O)C1=C(Nc2ccc(Cl)cc2Cl)OCC1=O`, the GI50 in the assay with COLO 205, with HCC 2998, with HCT-116, in the assay with HL-60, in the assay on HOP-92 and with HT-29 was > 100 µM (inactive) in each case. The GI50 in the assay with LOX IMVI, in the assay with NCI-H226, in the assay with SF-268, in the assay with SK-MEL-28, in the assay with SK-MEL-2 and with SW-620 was > 100 µM (inactive) throughout. In addition, the GI50 with UACC-257 and in the assay on UO-31 was > 100 µM (inactive) each time.

For `CCOC(=N)CC(=O)Nc1cccc(C)c1C`, the GI50 in the assay with A498, in the assay with CCRF-CEM, in the assay on COLO 205, in the assay with HCC 2998, in the assay on HCT-116 and with HL-60 was > 100 µM (inactive) in each case. The GI50 in the assay with HT-29, with LOX IMVI, in the assay with NCI-H226, with SF-268, with SK-MEL-28 and in the assay on SK-MEL-2 was > 100 µM (inactive) throughout. For the same molecule, the GI50 in the assay on SK-MEL-5, in the assay on SW-620, with UACC-257 and with UO-31 was > 100 µM (inactive) in each case.

`CC1CCCC2(O1)OC1CC(=O)OC1C1=C2C(=O)c2ccccc2C1=O` (stereo not drawn): the GI50 was 17.7 µM (inactive) in the assay with A498; 1.57 µM (inactive) in the assay on CCRF-CEM; 2.02 µM (inactive) with COLO 205; 2.37 µM (inactive) in the assay with HCC 2998; 1.39 µM (inactive) in the assay on HL-60; 2.42 µM (inactive) with HT-29. The GI50 is 2.64 µM (inactive) in the assay with LOX IMVI; 1.3 µM (inactive) in the assay on NCI-H226; 4.02 µM (inactive) in the assay with SF-268; 2.14 µM (inactive) in the assay with SK-MEL-28; 2.33 µM (inactive) with SK-MEL-2; 2.06 µM (inactive) in the assay with SK-MEL-5. In addition, the GI50 with SW-620 is 1.67 µM (inactive); in the assay with UACC-257 it was 1.81 µM (inactive); with UO-31, 2.13 µM (inactive).
